The subject of test [1] is RSV infection. To be noted: selected infants; intramuscularly at 15 mg/kg once a month for the duration of RSV season; cited from earlier work.
Test [2] concerns established RSV infection. The following applies: in vivo; cited from earlier work.
In test [3] the test system is RSV. The following applies: Phase III clinical trials; cited from earlier work.
In test [4] the test system is RSV Long strain. Kind of test: Viral cytopathic effect (CPE) assay, anti-RSV activity. To be noted: human respiratory syncytial virus, 144 h, RSV Long strain (ATCC); cell viability after 6 days, Cell Counting kit-8. It counts as cell-based, Respiratory Syncytial Virus. Summed up: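 EC50 was derived from CCK-8 viability at 450/630 nm measured 6 days post-infection. Infection used enough RSV Long strain for approximately 80–90% cytopathic effect, in the presence of half-log serially diluted compound. Cells were plated the day before at 6×10^3 per well in DMEM/10% FBS.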
On the technique in general: Cytopathic effects are the visible damage that an infection or toxin causes in cultured cells.

Take palivizumab: the “reduction of hospitalization rate caused by RSV infection” value in test [1] is given as 45-55%. Moreover, the “efficacy in the treatment of established RSV infection” value in test [2] is recorded as “not effective”. Take motavizumab: the benefit over palivizumab result in test [3] is given as “failed to show additional benefit over palivizumab”.

Consider `Cc1ccc2nc(N3CCC(F)(F)c4ccccc4C3)cc(NCCCCN)c2c1` [Example 111-10, N-[2-(5,5-Difluoro-1,3,4,5-tetrahydro-2H-2-benzazepin-2-yl)-6-methylquinolin-4-yl]butane-1,4-diamine], for which, in test [4], the midpoint of the response, the EC50, lay at 0.107 µM. As to `Clc1cc(N2CCCc3ccccc3C2)nc2ccccc12` [Example 118-26, 2-(4-Chloroquinolin-2-yl)-2,3,4,5-tetrahydro-1H-2-benzazepine], the EC50 (as a rule, the concentration at which the effect is half-maximal) in test [4] amounted to 7.75 µM.

In test [4], `NCCNc1cc(N2CCCc3ccccc3C2)nc2ccc(Oc3ccccn3)cc12` [Example 122, N-[6-(Pyridin-2-yloxy)-2-(1,3,4,5-tetrahydro-2H-2-benzazepin-2-yl)quinolin-4-yl]ethane-1,2-diamine] displayed an EC50 of 3.12 µM. The same measure, in the same setting: under `Cc1ccc2nc(N3CCS(=O)(=O)c4ccccc4C3)cc(NCCOCCN)c2c1` [Example 5-2, N-[2-(2-Aminoethoxy)ethyl]-2-(1,1-dioxido-2,3-dihydro-1,4-benzothiazepin-4(5H)-yl)-6-methylquinolin-4-amine] stands 0.211 µM. The compound `NC1(CNc2cc(N3CCS(=O)(=O)c4ccc(F)cc4C3)nc3ccc(Cl)cc23)COC1` [Example 3-3, N-[(3-Aminooxetan-3-yl)methyl]-6-chloro-2-(7-fluoro-1,1-dioxido-2,3-dihydro-1,4-benzothiazepin-4(5H)-yl)quinolin-4-amine] gave an EC50 in test [4] of 3.55 µM. Compared with the last compound, the EC50 is about 17-fold higher.

The compound `Cc1ccc2nc(N3CCS(=O)(=O)c4ccccc4C3)cc(N(C)CCN)c2c1` [Example 21-2, N-[2-(1,1-Dioxido-2,3-dihydro-1,4-benzothiazepin-4(5H)-yl)-6-methylquinolin-4-yl]-N-methylethane-1,2-diamine] came in with an EC50 in test [4] of 0.161 µM.

The values are drawn from patent US8871756B2 (Hoffmann-La Roche Inc., priority 2011, dated 2014).
